In paper PMC5596366, “Cytotoxicity and genotoxicity of stilbene derivatives in CHO-K1 and HepG2 cell lines” (Genetics and Molecular Biology, 2017):
“Also recorded” adds a separate entry of the source.

Experiments:
[1] = system: colon and intestinal tumors; design: method as in Schneider et al., 2001; settings: Min mice; ref Schneider et al., 2001; cited from earlier work
[2] = design: method as in Paul et al. (2010); settings: in vivo; ref Paul et al. (2010); cited from earlier work
[3] = system: CHO-K1 and HepG2 cell lines; test: Clonogenic survival assay, statements not split by cell line; settings: based on clonogenic survival assay
Method: (§1) CHO-K1 and HepG2 cells were obtained from the Cell Bank of Rio de Janeiro (BCRJ code 0069 and 0103, respectively) and cultured in complete medium containing DMEM+F10 nutrient mixture (1:1, v/v), supplemented with fetal bovine serum (10%, v/v) and penicillin/streptomycin stabilized solution (10 mL/L). Cell cultures were incubated at 37 °C with atmosphere saturated with 5% of CO2. All experiments were conducted between the 3rd and the 8th passages and three experimental repetitions were performed.
(§2) Doxorubicin (DOX) was dissolved in ultrapure sterile water in a stock solution of 900 μM. All reagents were dissolved prior to use and protected from light. For all experiments, cells were submitted to 24 h treatment with different concentrations of the tested substance and DOX was used as positive control in CHO-K1 cells. Benzo(a)pyrene [B(a)P] at 25 μM was used as positive control in HepG2 cells.
The clonogenic assay was performed according to [Franken et al. (2006)]. Briefly, 200 cells/well were plated in 6 well plates containing 3 mL of complete medium. After 4 h of incubation at 37 °C, the cells were treated with different concentrations of the testing stilbenes for 24 h, then each well was washed with PBS 1X and complete medium was added. […] The colonies were counted, and the cell survival fraction was calculated as percent colonies relative to the untreated control.

tubulin = system: tubulin; design: method as in Schneider et al. (2003); settings: ref Schneider et al. (2003); cited from earlier work
[4] = Cell viability assay (XTT), 24 h treatment; format: cell-based
Method: as §1, §2
To determine cell viability, 10^4 cells/well were seeded on a 96-well plate. […] The plates were washed twice in phosphate buffer saline (PBS 1X) and incubated for 4 h at 37 °C with DMEM without phenol red and supplemented with the reagents of the Cell Proliferation Kit (XTT) as recommended by the manufacturer. Total absorbance was measured at 492 and 690 nm (reference) using a microplate reader (ASYS, Eugendorf, Salzburg, Austria).

HepG2 cells [5] = test: Clonogenic survival assay; format: cell-based; settings: for survival fraction: 24 h treatment
Method: as §1, §2
(§3) The clonogenic assay was performed according to [Franken et al. (2006)]. Briefly, 200 cells/well were plated in 6 well plates containing 3 mL of complete medium. After 4 h of incubation at 37 °C, the cells were treated with different concentrations of the testing stilbenes for 24 h, then each well was washed with PBS 1X and complete medium was added. The cells were allowed to grow for 7–14 days at 37 °C and 5% of CO2, when colonies were visible. The colonies formed were fixed with methanol/acetic acid/water (1:1:8 v/v/v) and stained with Giemsa 5% (v/v) in Sorensen phosphate buffer (pH 6.8). The colonies were counted, and the cell survival fraction was calculated as percent colonies relative to the untreated control.

CHO-K1 cells [6] = test: Clonogenic survival assay; format: cell-based; settings: for survival fraction: 24 h treatment
Method: as §1, §2, §3

HepG2 cells [7] = test: Cytokinesis-block micronucleus assay (CBMN); format: cell-based; settings: for nuclear bridges (NB): HepG2; for mean micronucleus (MN) frequency: 24 h
Method: as §1, §2
(§4) For the micronucleus test, 10^6 cells were seeded in […] culture flasks containing complete medium. Cell cultures were allowed to grow for 24 h, then treated with different concentrations of the stilbene derivatives. Simultaneously, cytochalasin B (6 μg/mL) was added to each cell culture to inhibit cytokinesis. After 24 h of incubation, cells were harvested with a hypotonic treatment (KCl 0.075 M) and fixed twice with methanol:acetic acid (3:1). Thereafter, the cell suspension was smeared on pre-cleaned microscope slides and air-dried. Staining was performed during 15 min with Giemsa at 5% in Sorensen Buffer (v/v). Microscope slides were washed in tap water and allowed to dry at room temperature overnight. The frequency of micronucleus (MN), frequency of binucleated cells with micronucleus (BCMN) and frequency of nucleoplasmic bridges (NB) were obtained by the analysis of 1000 binucleated cell/culture/treatment as previously described by [Fenech (2000)]. A total of 500 cells/culture/treatment were analyzed to determine the Nuclear Division Index (NDI) by scoring cells with 1, 2, 3 or 4 nuclei and using the formula: NDI= M1+2(M2)+3(M3)+4(M4)/N, where, M1–M4 stand for the number of cells with 1–4 nuclei and N is the total number of viable cells analyzed.

CHO-K1 cells [8] = test: Cytokinesis-block micronucleus assay (CBMN); format: cell-based; settings: for mean micronucleus (MN) frequency: 24 h
Method: as §1, §2, §4

HT-29 xenografts = system: HT-29 xenografts; design: method as in Paul et al. (2010); settings: HT-29 xenografts model of colon cancer; ref Paul et al. (2010); cited from earlier work
Caco-2 cells = system: Caco-2 cells; design: method as in Schneider et al. (2003); settings: ref Schneider et al. (2003); cited from earlier work
[9] = system: colonic aberrant crypt foci (ACF); design: method as in Suh et al., 2007; settings: ref Suh et al., 2007; cited from earlier work
Colo 205 xenograft = system: Colo 205 xenograft; design: method as in Pan et al., 2008; settings: Colo 205 xenograft model of colon cancer; ref Pan et al., 2008; cited from earlier work
[10] = Chinese hamster, CHO-K1, 7.8 μM (lowest concentration)
[11] = human, HepG2, 7.8 μM (lowest concentration)

Q: Which “prevention of formation of colon and intestinal tumors” value [1] does the source give for `Oc1ccc(/C=C/c2cc(O)cc(O)c2)cc1` [Resveratrol] here?
A: Its value is 70%.

Q: Which results are given for `COc1ccc(/C=C\c2cc(OC)cc(OC)c2)cc1` [cis-TMS, (Z)-1,3-dimethoxy-5-(4-methoxystyryl)benzene]?
A: bioavailability [2]: low bioavailability; fold more cytotoxic than the amino and ester [3]: approximately 250 fold; fold more cytotoxic than trans-TMS [3]: 128 fold; tubulin polymerization (tubulin): inhibited tubulin polymerization in a dose-dependent manner; viability at 24 h, 7.8 µM [4, 10]: 60.7%; viability at 24 h, 7.8 µM [4, 11]: 49%; survival fraction (HepG2 cells [5]; HepG2, 0.078 μM): 41.3%; survival fraction (HepG2 cells [5]; HepG2, 0.156 μM): 54.3%; survival fraction (HepG2 cells [5]; HepG2, 0.3125 μM): 16.9%; survival fraction (HepG2 cells [5]; HepG2, 0.625 μM): 6.2%; cells killed (clonogenic assay) (HepG2 cells [5]; HepG2, at 2.5, 5 and 10 μM): 100%; survival fraction (CHO-K1 cells [6]; CHO-K1, 0.078 μM): 45.8%; survival fraction (CHO-K1 cells [6]; CHO-K1, 0.156 μM): 36.8%; survival fraction (CHO-K1 cells [6]; CHO-K1, 0.3125 μM): 13.9%; cells killed (clonogenic assay) (CHO-K1 cells [6]; CHO-K1, all concentrations tested (2.5 μM upwards)): 100%; nuclear bridges (NB) (HepG2 cells [7]): No significant induction; mean micronucleus (MN) frequency (HepG2 cells [7]; HepG2, 0.125 μM): 3.5 MN/100 cells; mean micronucleus (MN) frequency (HepG2 cells [7]; HepG2, 0.5 μM): 6.1 MN/100 cells; mean micronucleus (MN) frequency (CHO-K1 cells [8]; CHO-K1, 0.125 μM): 2.8 MN/100 cells; mean micronucleus (MN) frequency (CHO-K1 cells [8]; CHO-K1, 0.5 μM): 5.2 MN/100 cells; effect on tumor (volume, weight) in vivo (HT-29 xenografts): not active in vivo; cell cycle effect in Caco-2 cells (Caco-2 cells): arrest of the cell cycle progression at the G2/M transition phase

Q: With `COc1cc(/C=C/c2ccc(O)cc2)cc(OC)c1` [pterostilbene] as the molecule, how does the “formation of azoxymethane-induced colonic aberrant crypt foci (ACF)” value [9] read?
A: Its value is “reduced the formation”.

Q: With `COc1ccc(/C=C/c2cc(OC)cc(OC)c2)cc1` [trans-TMS, (E)-1,3-dimethoxy-5-(4-methoxystyryl)benzene] as the molecule, how does the serum levels [2] read?
A: The serum levels was “much higher serum levels than the cis-TMS”.

Q: What about the tumor growth (Colo 205 xenograft) of the same molecule?
A: Its tumor growth is “significantly reduced tumor growth”.

Q: What about the viability at 24 h, 7.8 µM [4, 10] of the same molecule?
A: The viability at 24 h, 7.8 µM was 62.5%.

Q: And the viability at 24 h, 7.8 µM [4, 11]?
A: The viability at 24 h, 7.8 µM was 59.1%.

Q: What about the “concentration from which colony formation is significantly reduced” value (HepG2 cells [5]; HepG2 (stated for both cell lines)) of the same molecule?
A: The value was 5 µM.

Q: What about the “frequency of survival fraction, result in words” value (HepG2 cells [5]; HepG2, 2.5-20 μM) of the same molecule?
A: Its value is “significant concentration-dependent reduction”.

Q: What about the “concentration from which colony formation is significantly reduced” value (CHO-K1 cells [6]; CHO-K1 (stated for both cell lines)) of the same molecule?
A: The value was 5 µM.

Q: What about the “frequency of survival fraction, result in words” value (CHO-K1 cells [6]; CHO-K1, 2.5-20 μM) of the same molecule?
A: Its value is “significant concentration-dependent reduction”.

Q: What about the “nuclear bridges (NB)” value (HepG2 cells [7]) of the same molecule?
A: Its value is “No significant induction”.

Q: What about the “micronucleus (MN) frequency, result in words” value (HepG2 cells [7]; HepG2, all tested concentrations) of the same molecule?
A: The value was “significantly increased”.

Q: And the “micronucleus (MN) frequency, result in words” value (CHO-K1 cells [8]; CHO-K1, all concentrations, compared to NC)?
A: The value was “no significant MN frequency”.

Q: What about the “effect on tumor (volume, weight) in vivo” value (HT-29 xenografts) of the same molecule?
A: Its value is “significantly reduced tumor volume; also recorded: significantly decreased tumor volume and weight”.

Q: What about the “fold less effective in inhibiting the growth of Caco-2 cells than the cis isomer” value (Caco-2 cells) of the same molecule?
A: The value was 100 fold.
